Consider 30 compounds from patent US10807994B2, “Heterocyclic compounds and uses thereof” (NUVATION BIO INC., priority 2017, dated 2020).

For one assay, the target named is WEE1 kinase enzyme (Homo sapiens (Human), UniProt P30291). In words: WEE1 IC50 determination, LanthaScreen Terbium labeled TR-FRET kinase assay. The assay is classed as biochemical. The following applies: WEE1 enzyme 1 nM. Here is the method:
IC50 values of compounds against WEE1 kinase enzyme were determined by LanthaScreen™ Terbium Labeled TR-FRET assay. Kinase assays were performed in 1× kinase buffer (# PV6135, Invitrogen, Life Technologies Grand Island, N.Y.) where total reaction volume was 10 μl in low-volume 384-well plates (#4511, Corning). Serially diluted compounds (3-fold) were incubated with WEE1 Enzyme (1 nM) (# PR7373A, Invitrogen, Life Technologies Grand Island, N.Y.) for 10 min, following which a mixture of ATP […] (# A1852, Sigma, St-Louis, Mo.) and fluorescent-PolyGT substrate (200 nM) (# PV3610, Invitrogen, Life Technologies Grand Island, N.Y.) was added and incubated in dark at room temperature for 1 h. After 1 h, 10 μl stop solution containing Terbium labeled antibody (4 nM) (# PV3529, Invitrogen, Life Technologies Grand Island, N.Y.) and EDTA (# E5134, Sigma, St-Louis, Mo.) (20 mM) in TR-FRET dilution buffer (# PV3574, Invitrogen, Life Technologies Grand Island, N.Y.) was added. Readings were taken in a Synergy Neo Plate reader (BioTek, Winooski) at single excitation of 340 nm and Dual emission at 495 nm and 520 nm respectively.
The % activity of test samples was calculated as (Sample−Min)*100/(Max−Min). [Max: DMSO control, complete reaction with enzyme & DMSO and Min: No enzyme & DMSO]. Percent inhibition (100-% activity) was fitted to the “four-parameter logistic model” in XLfit for determination of IC50 values.
(Time-resolved FRET reads energy transfer from a long-lived donor to a nearby acceptor.)

The subject of the next assay is A427 cells. In words: Cytotoxicity assay (resazurin), A427 cells, 72 hr. The assay is classed as cell-based. The following applies: Homo sapiens, A-427, read-out: Cell Viability A427 IC50. The procedure: (§1) A549 (CCL-185; ATCC) and A427 (HTB-53; ATCC), both lung epithelial cell lines were seeded in their respective medium (DMEM/MEM, 10569044/41090101; Gibco) at a cell count of 1500 cells per 100 μL per well in a 96 well edge plate (167425; ThermoFisher). Cells were allowed to grow at 37° C. for 24 hr in 5% CO2 environment (culture conditions) in a Nuaire incubator (humidified). Serially diluted test compounds (100 μL) within the desired testing concentration ranges were added to the culture plate were further incubated in culture conditions for 72 hr and 96 hr for A427 and A549 respectively. The experiment was terminated at the designated incubation time by replacing the medium with 100 μL of 1 mM of resazurin (R7017; Sigma) prepared in respective culture medium, and the plates were further incubated in culture conditions for 4-6 hr. Fluorescence was recorded using a multimodal plate reader (Biotek Synergy Neo) at an excitation wavelength of 535 nm and emission wavelength of 590 nm to obtain relative fluorescence units. Data analysis was done by subtracting the background fluorescence (only medium blank) value from each reading and then normalizing with the vehicle control (DMSO treated cells) to obtain percent survival/proliferation. Percent survival was then subtracted by 100 to get the percent inhibition of proliferation which was used to calculate IC50 values. Potency of compounds in other cell lines (As-Pc-1, Panc-10.05, MDAMB231, A172) was determined in an analogous manner.

In the next assay the test system is A549 cells. The experiment in a line: Cytotoxicity assay (resazurin), A549 cells, 96 hr. The format is cell-based. The following applies: read-out: Cell Viability A549 IC50. Here is the method:
as §1
Background: Resazurin is reduced to fluorescent resorufin, in cell work by metabolically active cells.

The structures appear in SMILES notation. Read-outs that look alike come from different tables or passages of the source.

Chain of WEE1 kinase enzyme (P30291 whole entry): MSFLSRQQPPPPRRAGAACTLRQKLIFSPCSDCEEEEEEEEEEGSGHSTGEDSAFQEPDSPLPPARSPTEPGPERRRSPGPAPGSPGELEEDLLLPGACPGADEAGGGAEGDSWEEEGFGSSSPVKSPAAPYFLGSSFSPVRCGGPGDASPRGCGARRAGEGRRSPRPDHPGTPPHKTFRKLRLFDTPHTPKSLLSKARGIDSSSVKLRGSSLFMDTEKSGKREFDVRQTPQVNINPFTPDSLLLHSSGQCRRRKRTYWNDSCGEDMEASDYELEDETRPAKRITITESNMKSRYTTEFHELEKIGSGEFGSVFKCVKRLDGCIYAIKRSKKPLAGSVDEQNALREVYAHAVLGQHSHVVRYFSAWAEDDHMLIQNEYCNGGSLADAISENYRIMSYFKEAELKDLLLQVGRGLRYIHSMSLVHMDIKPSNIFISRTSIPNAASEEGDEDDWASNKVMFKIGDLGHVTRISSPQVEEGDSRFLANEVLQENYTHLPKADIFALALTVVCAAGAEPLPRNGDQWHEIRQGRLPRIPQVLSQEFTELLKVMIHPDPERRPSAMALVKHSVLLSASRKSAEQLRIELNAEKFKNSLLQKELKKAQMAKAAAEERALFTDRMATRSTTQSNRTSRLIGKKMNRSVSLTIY

What is called IC50 is the concentration needed to halve the response being measured. On to `CN1CCN(c2ccc(Nc3ncc4c(n3)OCN(c3c(Cl)cccc3Cl)C4=O)cc2)CC1` [Example 1.1], for which the results for the 50% inhibitory concentration (IC50) on WEE1 kinase enzyme, with A427 cells and in the assay with A549 cells (Homo sapiens) were 56 nM, 4470 nM and 9700 nM, respectively.
`CN1Cc2cc(Nc3ncc4c(n3)OCN(c3c(Cl)cccc3Cl)C4=O)ccc2C(C)(C)C1` [Example 1.4]: the concentration for half-maximal inhibition (IC50) on WEE1 kinase enzyme was 9 nM; in the assay on A549 cells (Homo sapiens), 5740 nM.
For `O=C1c2cnc(Nc3ccc(N4CCNCC4)c(F)c3)nc2OCN1c1c(Cl)cccc1Cl` [Example 1.29], the figures for the IC50 on WEE1 kinase enzyme and with A549 cells (Homo sapiens) were 212 nM and 8880 nM, respectively.
`Cc1cccc(Cl)c1N1COc2nc(Nc3ccc(N4CCNCC4)cc3)ncc2C1=O` [Example 1.30, 3-(2-chloro-6-methylphenyl)-7-((4-(piperazin-1-yl)phenyl)amino)-2,3-dihydro-4H-pyrimido[5,4-e][1,3]oxazin-4-one]: the IC50 at WEE1 kinase enzyme came out at 325 nM; in the assay on A549 cells (Homo sapiens) it was 8650 nM.
`CN1CCN(c2ccc(Nc3cc4c(cn3)C(=O)N(c3c(Cl)cccc3Cl)CO4)cc2)CC1` [Example 1.32, 3-(2,6-dichlorophenyl)-7-(4-(4-methylpiperazin-1-yl)phenylamino)-2H-pyrido[3,4-e][1,3]oxazin-4(3H)-one]: the IC50 turned out to be 366 nM at WEE1 kinase enzyme and 7430 nM in the assay on A549 cells.
On to `Cc1cc(Nc2ncc3c(n2)OCN(c2c(Cl)cccc2Cl)C3=O)ccc1N1CCNCC1` [Example 1.33, 3-(2,6-dichlorophenyl)-7-(3-methyl-4-(piperazin-1-yl)phenylamino)-2H-pyrimido[5,4-e][1,3]oxazin-4(3H)-one], for which the IC50 was determined as 50 nM on WEE1 kinase enzyme, 2820 nM in the assay on A427 cells and 2690 nM with A549 cells (Homo sapiens).
As to `CN1CCc2ccc(Nc3ncc4c(n3)OCN(c3c(Cl)cccc3Cl)C4=O)cc2C1` [Example 1.35, 3-(2,6-dichlorophenyl)-7-(2-methyl-1,2,3,4-tetrahydroisoquinolin-7-ylamino)-2H-pyrimido[5,4-e][1,3]oxazin-4(3H)-one], the figures for the IC50 on WEE1 kinase enzyme and in the assay on A549 cells (Homo sapiens) were 35 nM and 11100 nM, respectively.
`O=C1c2cnc(Nc3ccc(N4CCNC[C@@H]4CO)cc3)nc2OCN1c1c(Cl)cccc1Cl` [Example 1.37, (R)-3-(2,6-dichlorophenyl)-7-(4-(2-(hydroxymethyl)piperazin-1-yl)phenylamino)-2H-pyrimido[5,4-e][1,3]oxazin-4(3H)-one]: the figures for the IC50 on WEE1 kinase enzyme and in the assay on A549 cells (Homo sapiens) were 113 nM and 9820 nM, respectively.
Turning to `O=C1c2cnc(Nc3ccc(N4CCNC[C@H]4CO)cc3)nc2OCN1c1c(Cl)cccc1Cl` [Example 1.38, (S)-3-(2,6-dichlorophenyl)-7-(4-(2-(hydroxymethyl)piperazin-1-yl)phenylamino)-2H-pyrimido[5,4-e][1,3]oxazin-4(3H)-one], the IC50 at WEE1 kinase enzyme worked out at 176 nM; in the assay with A549 cells (Homo sapiens) it was 9150 nM.
In the same order, the values of `O=C1c2cnc(Nc3ccc(N4CCNCC4)cc3)nc2OCN1c1c(F)cccc1F` [Example 1.39, 3-(2,6-difluorophenyl)-7-(4-(piperazin-1-yl)phenylamino)-2H-pyrimido[5,4-e][1,3]oxazin-4(3H)-one] are 540 nM and 10400 nM.
Take `O=C1CNCCN1c1ccc(Nc2ncc3c(n2)OCN(c2c(Cl)cccc2Cl)C3=O)cc1` [Example 1.41, 3-(2,6-dichlorophenyl)-7-((4-(2-oxopiperazin-1-yl)phenyl)amino)-2,3-dihydro-4H-pyrimido[5,4-e][1,3]oxazin-4-one]: the IC50 on WEE1 kinase enzyme is 791 nM; in the assay on A549 cells (Homo sapiens) it was above 30000 nM.
Take `CN1CCN(c2ccc(Nc3ncc4c(n3)OCN(c3c(Cl)cncc3Cl)C4=O)cc2)CC1` [Example 1.43, 3-(3,5-dichloropyridin-4-yl)-7-(4-(4-methylpiperazin-1-yl)phenylamino)-2H-pyrimido[5,4-e][1,3]oxazin-4(3H)-one]: the IC50 came out at 479 nM at WEE1 kinase enzyme and 22100 nM in the assay on A549 cells (Homo sapiens).
In the same order, the values of `O=C1c2cnc(Nc3ccc4c(c3)CCNC4)nc2OCN1c1c(Cl)cccc1Cl` [Example 1.44, 3-(2,6-dichlorophenyl)-7-(1,2,3,4-tetrahydroisoquinolin-6-ylamino)-2H-pyrimido[5,4-e][1,3]oxazin-4(3H)-one] are 23 nM and 5790 nM.
Turning to `O=C1c2cnc(Nc3ccc(N4CCC(O)CC4)cc3)nc2OCN1c1c(Cl)cccc1Cl` [Example 1.45, 3-(2,6-dichlorophenyl)-7-(4-(4-hydroxypiperidin-1-yl)phenylamino)-2H-pyrimido[5,4-e][1,3]oxazin-4(3H)-one], the values for the IC50 at WEE1 kinase enzyme and with A549 cells (Homo sapiens) were 288 nM and above 30000 nM, respectively.
Regarding `NCC(=O)N1CCN(c2ccc(Nc3ncc4c(n3)OCN(c3c(Cl)cccc3Cl)C4=O)cc2)CC1` [Example 1.46, 7-(4-(4-(2-aminoacetyl)piperazin-1-yl)phenylamino)-3-(2,6-dichlorophenyl)-2H-pyrimido[5,4-e][1,3]oxazin-4(3H)-one], the IC50 came out at 53 nM at WEE1 kinase enzyme and 9860 nM in the assay with A549 cells (Homo sapiens).
Take `CC1(C)CNCc2cc(Nc3ncc4c(n3)SCN(c3c(Cl)cccc3Cl)C4=O)ccc21` [Example 1.231]: the IC50 on WEE1 kinase enzyme came to 142 nM; with A427 cells it was 2230 nM.
For `CN(C)C1CCN(c2ccc(Nc3ncc4c(n3)SCN(c3c(Cl)cccc3Cl)C4=O)cc2)CC1` [Example 1.232], the IC50 at WEE1 kinase enzyme was 273 nM; in the assay on A427 cells it was 1120 nM.
Regarding `O=C1c2cnc(Nc3ccc4c(c3)CNCC4)nc2SCN1c1c(Cl)cccc1Cl` [Example 1.233], the IC50 at WEE1 kinase enzyme worked out at 165 nM; in the assay with A427 cells, 7210 nM.
As for `O=C1c2cnc(Nc3ccc4c(c3)CCNC4)nc2SCN1c1c(Cl)cccc1Cl` [Example 1.234], the IC50 at WEE1 kinase enzyme was determined as 202 nM; in the assay with A427 cells, 4840 nM.
Turning to `Cc1cc(Nc2ncc3c(n2)SCN(c2c(Cl)cccc2Cl)C3=O)ccc1N1CCNCC1` [Example 1.235], the results for the IC50 at WEE1 kinase enzyme and with A427 cells were 111 nM and 2900 nM, respectively.
Regarding `O=C1c2cnc(Nc3ccc(N4CCNCC4)c(Cl)c3)nc2SCN1c1c(Cl)cccc1Cl` [Example 1.236], the IC50 at WEE1 kinase enzyme turned out to be 335 nM; in the assay on A427 cells it was 1770 nM.
Consider `CC1(C)CNCc2cc(Nc3ncc4c(n3)SCN(c3c(F)cccc3Cl)C4=O)ccc21` [Example 1.238], for which the results for the IC50 on WEE1 kinase enzyme and in the assay on A427 cells were 45 nM and 5290 nM, respectively.
As to `CN(C)C1CCN(c2ccc(Nc3ncc4c(n3)SCN(c3c(Cl)cccc3Cl)C4=O)cc2C#N)CC1` [Example 1.239], the figures for the IC50 on WEE1 kinase enzyme and in the assay with A427 cells were 508 nM and 765 nM, respectively.
For the compound `CN(C)C1CCN(c2ccc(Nc3ncc4c(n3)SCN(c3c(Cl)cccc3Cl)C4=O)cc2Cl)CC1` [Example 1.240], the IC50 on WEE1 kinase enzyme was 303 nM; in the assay on A427 cells, 1640 nM.
For `CN1Cc2cc(Nc3ncc4c(n3)SCN(c3c(Cl)cccc3Cl)C4=O)ccc2C(C)(C)C1` [Example 1.241], the IC50 on WEE1 kinase enzyme was 95 nM; with A427 cells, 3490 nM.
Consider `COc1cc(Nc2ncc3c(n2)SCN(c2c(Cl)cccc2Cl)C3=O)ccc1N1CCC(N(C)C)CC1` [Example 1.242], for which the IC50 on WEE1 kinase enzyme turned out to be 331 nM; in the assay on A427 cells, 1620 nM.
As for `CC1CNCCN1c1ccc(Nc2ncc3c(n2)SCN(c2c(Cl)cccc2Cl)C3=O)cc1Cl` (centres unmarked) [Example 1.243], the 50% inhibitory concentration (IC50) at WEE1 kinase enzyme was 948 nM; with A427 cells, 625 nM.
With `CC1CN(c2ccc(Nc3ncc4c(n3)SCN(c3c(Cl)cccc3Cl)C4=O)cc2Cl)CCN1` (centres unmarked) [Example 1.244], the IC50 is 351 nM at WEE1 kinase enzyme and 510 nM in the assay with A427 cells.
For `CN(C)C1CCN(c2ccc(Nc3ncc4c(n3)SCN(c3c(F)cccc3Cl)C4=O)cc2Cl)CC1` [Example 1.245], in that order: 297 nM and 1140 nM.
With `CC1(C)NCCc2cc(Nc3ncc4c(n3)SCN(c3c(Cl)cccc3Cl)C4=O)ccc21` [Example 1.246], the values for the IC50 on WEE1 kinase enzyme and in the assay with A427 cells were 61 nM and 2440 nM, respectively.
